Source: patent publication US20260091026A1, “METHODS OF TREATING INFLAMMATORY DISEASES” (INTERLINE THERAPEUTICS, INC., priority 2023, published 2026)

Assays:
[1] = test system: THP1-Dual cells, NF-κB pathway (SEAP); assay: THP-1 Dual cell SEAP assay (L18-MDP stimulated); format: cell-based; conditions: Homo sapiens, 10 ng/mL L18-MDP, 20-24 h, SEAP readout, read-out: IFNγ THP1 IC50
Summary of the method: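 About 25,000 THP1-Dual cells per well were preincubated 30 min with serially diluted compound, then stimulated overnight (20-24 h, 37 °C) with 10 ng/mL L18-MDP (final). NF-κB-driven SEAP in supernatant was read with QUANTI-Blue at OD 620-655 nm after 2 h; % inhibition versus DMSO/L18-MDP wells was fitted by non-linear regression to give IC50.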

RIPK2 (KD)/XIAP (BIR2) = target: T1, RIPK2 (KD)/XIAP (BIR2) (Homo sapiens, UniProt O43353); assay: RIPK2-XIAP binding competition PPI assay (TR-FRET); conditions: for Emax: 50 nM of GSK583 = -100% activity, read-out: PPI Amax; for IC50: GST-RIPK2 / His-XIAP (BIR2)-avi, 120 min at 23° C.
T1 construct: made in house; host or cells: baculovirus-infected Sf9 cells
Summary of the method: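 TR-FRET competition between GST-RIPK2 (aa 1-310, 1 nM) and His-XIAP BIR2-avi (aa 152-231, 25 nM), both Sf9-expressed, detected with anti-His-XL665 and anti-GST-Tb in Tris pH 7.5 buffer with MgCl2, DTT and vanadate. Incubation was 120 min at 23 °C; the 665/520 nm ratio was normalized to no inhibitor (0%) and 50 nM GSK583 (−100%).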

T1 sequence (O43353 1-310): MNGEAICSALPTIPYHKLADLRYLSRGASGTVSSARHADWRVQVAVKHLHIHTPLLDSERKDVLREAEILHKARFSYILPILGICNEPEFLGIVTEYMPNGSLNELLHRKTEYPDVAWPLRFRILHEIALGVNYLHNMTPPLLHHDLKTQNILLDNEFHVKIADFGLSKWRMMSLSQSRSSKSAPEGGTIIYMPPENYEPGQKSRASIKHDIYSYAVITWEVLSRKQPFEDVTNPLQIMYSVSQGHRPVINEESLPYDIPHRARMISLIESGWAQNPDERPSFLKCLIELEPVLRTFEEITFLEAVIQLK

Row | Structure (SMILES) | IC50 [1] [µM] | Emax (RIPK2 (KD)/XIAP (BIR2)) [%] | IC50 (RIPK2 (KD)/XIAP (BIR2)) [µM]
1 | COc1cn2ncc(-c3cc(C(=O)N[C@H](C)c4ccccn4)n(C)n3)c2cc1C1(F)CCN(C)CC1 [Example 58, (R)-3-(5-(4-fluoro-1-methylpiperidin-4-yl)-6-methoxypyrazolo[1,5-a]pyridin-3-yl)-1-methyl-N-(1-(pyridin-2-yl)ethyl)-1H-pyrazole-5-carboxamide] | 0.5 to 2.5 | ≥ 80 | 0.1 to 1
2 | COc1cc2ncc(-c3cc(C(=O)N[C@H](C)c4ccn(C)n4)n(C)n3)n2cc1S(=O)(=O)C(C)(C)C [Example 59, (R)-3-(6-(tert-butylsulfonyl)-7-methoxyimidazo[1,2-a]pyridin-3-yl)-1-methyl-N-(1-(1-methyl-1H-pyrazol-3-yl)ethyl)-1H-pyrazole-5-carboxamide] | 0.5 to 2.5 | ≥ 80 | 0.1 to 1
3 | COc1cc2ncc(-c3cc(C(=O)N[C@@H](C)c4ccn(C)n4)n(C)n3)n2cc1S(=O)(=O)C(C)(C)C [Example 60, (S)-3-(6-(tert-butylsulfonyl)-7-methoxyimidazo[1,2-a]pyridin-3-yl)-1-methyl-N-(1-(1-methyl-1H-pyrazol-3-yl)ethyl)-1H-pyrazole-5-carboxamide] | > 2.5 | ≥ 80 | > 1
4 | CC[C@@H](NC(=O)c1cc(-c2cnc3cc(OC)c(S(=O)(=O)C(C)(C)C)cn23)nn1C)c1ccccn1 [Example 61, (R)-3-(6-(tert-butylsulfonyl)-7-methoxyimidazo[1,2-a]pyridin-3-yl)-1-methyl-N-(1-(pyridin-2-yl)propyl)-1H-pyrazole-5-carboxamide] | > 2.5 | ≥ 80 | 0.1 to 1
5 | COc1cc2ncc(-c3cc(C(=O)N[C@@H](c4ccccn4)C(F)(F)F)n(C)n3)n2cc1S(=O)(=O)C(C)(C)C [Example 62, (S)-3-(6-(tert-butylsulfonyl)-7-methoxyimidazo[1,2-a]pyridin-3-yl)-1-methyl-N-(2,2,2-trifluoro-1-(pyridin-2-yl)ethyl)-1H-pyrazole-5-carboxamide] | 0.5 to 2.5 | ≥ 80 | 0.1 to 1
6 | COc1cc2ncc(-c3cc(C(=O)N[C@@H]4CCc5cccnc54)n(C)n3)n2cc1S(=O)(=O)C(C)(C)C [Example 63, (R)-3-(6-(tert-butylsulfonyl)-7-methoxyimidazo[1,2-a]pyridin-3-yl)-N-(6,7-dihydro-5H-cyclopenta[b]pyridin-7-yl)-1-methyl-1H-pyrazole-5-carboxamide] | > 2.5 | ≥ 80 | 0.1 to 1
7 | COc1cc2ncc(-c3cc(C(=O)N[C@H]4CCc5cccnc54)n(C)n3)n2cc1S(=O)(=O)C(C)(C)C [Example 64, (S)-3-(6-(tert-butylsulfonyl)-7-methoxyimidazo[1,2-a]pyridin-3-yl)-N-(6,7-dihydro-5H-cyclopenta[b]pyridin-7-yl)-1-methyl-1H-pyrazole-5-carboxamide] | 0.5 to 2.5 | ≥ 80 | 0.01 to 0.1
8 | COc1cc2ncc(-c3cc(C(=O)NCc4ncccc4C)n(C)n3)n2cc1S(=O)(=O)C(C)(C)C [Example 65, 3-(6-(tert-butylsulfonyl)-7-methoxyimidazo[1,2-a]pyridin-3-yl)-1-methyl-N-((3-methylpyridin-2-yl)methyl)-1H-pyrazole-5-carboxamide] | > 2.5 | ≥ 80 | 0.1 to 1
9 | COc1cc2ncc(-c3cc(C(=O)NCc4ncccn4)n(C)n3)n2cc1S(=O)(=O)C(C)(C)C [Example 66, 3-(6-(tert-butylsulfonyl)-7-methoxyimidazo[1,2-a]pyridin-3-yl)-1-methyl-N-(pyrimidin-2-ylmethyl)-1H-pyrazole-5-carboxamide] | 0.5 to 2.5 | ≥ 80 | 0.1 to 1
10 | COc1cc2ncc(-c3cc(C(=O)NCc4cnccn4)n(C)n3)n2cc1S(=O)(=O)C(C)(C)C [Example 67, 3-(6-(tert-butylsulfonyl)-7-methoxyimidazo[1,2-a]pyridin-3-yl)-1-methyl-N-(pyrazin-2-ylmethyl)-1H-pyrazole-5-carboxamide] | > 2.5 | 55 to 80 | > 1
11 | COc1cc2ncc(-c3cc(C(=O)NCc4ccncn4)n(C)n3)n2cc1S(=O)(=O)C(C)(C)C [Example 68, 3-(6-(tert-butylsulfonyl)-7-methoxyimidazo[1,2-a]pyridin-3-yl)-1-methyl-N-(pyrimidin-4-ylmethyl)-1H-pyrazole-5-carboxamide] | > 2.5 | ≤ 30 | > 1
12 | COc1cc2ncc(-c3cc(C(=O)NCc4cccnn4)n(C)n3)n2cc1S(=O)(=O)C(C)(C)C [Example 69, 3-(6-(tert-butylsulfonyl)-7-methoxyimidazo[1,2-a]pyridin-3-yl)-1-methyl-N-(pyridazin-3-ylmethyl)-1H-pyrazole-5-carboxamide] | > 2.5 | ≤ 30 | > 1
13 | COc1cc2ncc(-c3cc(C(=O)NCc4ccnn4C)n(C)n3)n2cc1S(=O)(=O)C(C)(C)C [Example 70, 3-(6-(tert-butylsulfonyl)-7-methoxyimidazo[1,2-a]pyridin-3-yl)-1-methyl-N-((1-methyl-1H-pyrazol-5-yl)methyl)-1H-pyrazole-5-carboxamide] | > 2.5 | 30 to 55 | > 1
14 | COc1cc2ncc(-c3cc(C(=O)NCc4ncccc4Cl)n(C)n3)n2cc1S(=O)(=O)C(C)(C)C [Example 71, 3-(6-(tert-butylsulfonyl)-7-methoxyimidazo[1,2-a]pyridin-3-yl)-N-((3-chloropyridin-2-yl)methyl)-1-methyl-1H-pyrazole-5-carboxamide] | 0.5 to 2.5 | ≥ 80 | 0.01 to 0.1
15 | COc1cc2ncc(-c3cc(C(=O)NCc4ncccc4OC)n(C)n3)n2cc1S(=O)(=O)C(C)(C)C [Example 72, 3-(6-(tert-butylsulfonyl)-7-methoxyimidazo[1,2-a]pyridin-3-yl)-N-((3-methoxypyridin-2-yl)methyl)-1-methyl-1H-pyrazole-5-carboxamide] | > 2.5 | ≥ 80 | 0.1 to 1
16 | COc1ccccc1CNC(=O)c1cc(-c2cnc3cc(OC)c(S(=O)(=O)C(C)(C)C)cn23)nn1C [Example 73, 3-(6-(tert-butylsulfonyl)-7-methoxyimidazo[1,2-a]pyridin-3-yl)-N-(2-methoxybenzyl)-1-methyl-1H-pyrazole-5-carboxamide] | 0.5 to 2.5 | ≥ 80 | 0.01 to 0.1
17 | COc1cc2ncc(-c3cc(C(=O)NCc4ccccc4CO)n(C)n3)n2cc1S(=O)(=O)C(C)(C)C [Example 74, 3-(6-(tert-butylsulfonyl)-7-methoxyimidazo[1,2-a]pyridin-3-yl)-N-(2-(hydroxymethyl)benzyl)-1-methyl-1H-pyrazole-5-carboxamide] | 0.5 to 2.5 | ≥ 80 | 0.01 to 0.1
18 | COc1ccccc1[C@@H](C)NC(=O)c1cc(-c2cnc3cc(OCCO)c(S(=O)(=O)C(C)(C)C)cn23)nn1C [Example 75, (R)-3-(6-(tert-butylsulfonyl)-7-(2-hydroxyethoxy)imidazo[1,2-a]pyridin-3-yl)-N-(1-(2-methoxyphenyl)ethyl)-1-methyl-1H-pyrazole-5-carboxamide] | 0.5 to 2.5 | ≥ 80 | 0.01 to 0.1
19 | COc1cc2ncc(-c3cc(C(=O)NCc4nccn4C)n(C)n3)n2cc1S(=O)(=O)C(C)(C)C [Example 76, 3-(6-(tert-butylsulfonyl)-7-methoxyimidazo[1,2-a]pyridin-3-yl)-1-methyl-N-((1-methyl-1H-imidazol-2-yl)methyl)-1H-pyrazole-5-carboxamide] | > 2.5 | ≤ 30 | > 1
20 | COc1cc2ncc(-c3cc(C(=O)NCc4noc(C)n4)n(C)n3)n2cc1S(=O)(=O)C(C)(C)C [Example 77, 3-(6-(tert-butylsulfonyl)-7-methoxyimidazo[1,2-a]pyridin-3-yl)-1-methyl-N-((5-methyl-1,2,4-oxadiazol-3-yl)methyl)-1H-pyrazole-5-carboxamide] | > 2.5 | ≥ 80 | 0.1 to 1
21 | COc1cc2ncc(-c3cc(C(=O)NCc4nc(C)no4)n(C)n3)n2cc1S(=O)(=O)C(C)(C)C [Example 78, 3-(6-(tert-butylsulfonyl)-7-methoxyimidazo[1,2-a]pyridin-3-yl)-1-methyl-N-((3-methyl-1,2,4-oxadiazol-5-yl)methyl)-1H-pyrazole-5-carboxamide] | > 2.5 | 55 to 80 | > 1
22 | COc1cc2ncc(-c3cc(C(=O)NCc4nccc(C)n4)n(C)n3)n2cc1S(=O)(=O)C(C)(C)C [Example 79, 3-(6-(tert-butylsulfonyl)-7-methoxyimidazo[1,2-a]pyridin-3-yl)-1-methyl-N-((4-methylpyrimidin-2-yl)methyl)-1H-pyrazole-5-carboxamide] | > 2.5 | ≥ 80 | 0.1 to 1
23 | CCn1nc(-c2cnc3cc(OC)c(S(=O)(=O)C(C)(C)C)cn23)cc1C(=O)NCc1ncccn1 [Example 80, 3-(6-(tert-butylsulfonyl)-7-methoxyimidazo[1,2-a]pyridin-3-yl)-1-ethyl-N-(pyrimidin-2-ylmethyl)-1H-pyrazole-5-carboxamide] | 0.1 to 0.5 | ≥ 80 | 0.01 to 0.1
